{"source": "patent US20100061982A1", "about": "“3-SUBSTITUTED-1H-INDOLE, 3-SUBSTITUTED-1H-PYRROLO[2,3-B]PYRIDINE AND 3-SUBSTITUTED-1H-PYRROLO[3,2-B]PYRIDINE COMPOUNDS, THEIR USE AS MTOR KINASE AND PI3 KINASE INHIBITORS, AND THEIR SYNTHESES” (priority 2008, published 2010)", "key": {"[1]": {"target": "PI3K alpha (Homo sapiens, UniProt P42336)", "sequence (P42336 whole entry, species assumed)": "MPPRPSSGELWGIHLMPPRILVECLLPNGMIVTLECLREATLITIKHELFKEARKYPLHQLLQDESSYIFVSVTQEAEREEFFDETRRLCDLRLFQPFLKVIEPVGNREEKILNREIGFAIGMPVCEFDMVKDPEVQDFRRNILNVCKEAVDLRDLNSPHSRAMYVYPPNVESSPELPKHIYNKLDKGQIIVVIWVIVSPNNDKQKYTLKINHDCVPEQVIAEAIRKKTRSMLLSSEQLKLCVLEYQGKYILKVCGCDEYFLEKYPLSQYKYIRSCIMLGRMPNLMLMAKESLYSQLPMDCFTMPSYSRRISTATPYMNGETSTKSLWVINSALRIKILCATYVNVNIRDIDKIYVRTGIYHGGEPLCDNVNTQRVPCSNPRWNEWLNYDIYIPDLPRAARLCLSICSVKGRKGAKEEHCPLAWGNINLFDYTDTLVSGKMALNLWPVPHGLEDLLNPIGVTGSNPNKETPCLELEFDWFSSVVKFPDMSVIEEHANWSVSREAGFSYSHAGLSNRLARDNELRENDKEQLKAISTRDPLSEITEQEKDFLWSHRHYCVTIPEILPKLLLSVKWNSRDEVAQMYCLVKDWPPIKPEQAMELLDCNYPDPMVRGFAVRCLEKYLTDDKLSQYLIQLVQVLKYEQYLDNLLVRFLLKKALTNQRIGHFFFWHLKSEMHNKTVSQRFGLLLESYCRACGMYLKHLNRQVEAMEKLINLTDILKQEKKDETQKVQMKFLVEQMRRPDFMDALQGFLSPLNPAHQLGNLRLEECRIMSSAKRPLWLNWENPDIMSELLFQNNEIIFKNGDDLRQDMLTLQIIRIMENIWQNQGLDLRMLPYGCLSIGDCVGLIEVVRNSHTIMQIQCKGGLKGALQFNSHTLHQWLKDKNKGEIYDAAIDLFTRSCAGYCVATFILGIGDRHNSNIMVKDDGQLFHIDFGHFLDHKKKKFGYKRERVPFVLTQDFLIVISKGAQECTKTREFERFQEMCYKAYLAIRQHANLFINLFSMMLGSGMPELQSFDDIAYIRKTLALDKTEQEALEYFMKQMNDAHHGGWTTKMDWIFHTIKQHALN", "sequence (P27986 whole entry partner, species assumed)": "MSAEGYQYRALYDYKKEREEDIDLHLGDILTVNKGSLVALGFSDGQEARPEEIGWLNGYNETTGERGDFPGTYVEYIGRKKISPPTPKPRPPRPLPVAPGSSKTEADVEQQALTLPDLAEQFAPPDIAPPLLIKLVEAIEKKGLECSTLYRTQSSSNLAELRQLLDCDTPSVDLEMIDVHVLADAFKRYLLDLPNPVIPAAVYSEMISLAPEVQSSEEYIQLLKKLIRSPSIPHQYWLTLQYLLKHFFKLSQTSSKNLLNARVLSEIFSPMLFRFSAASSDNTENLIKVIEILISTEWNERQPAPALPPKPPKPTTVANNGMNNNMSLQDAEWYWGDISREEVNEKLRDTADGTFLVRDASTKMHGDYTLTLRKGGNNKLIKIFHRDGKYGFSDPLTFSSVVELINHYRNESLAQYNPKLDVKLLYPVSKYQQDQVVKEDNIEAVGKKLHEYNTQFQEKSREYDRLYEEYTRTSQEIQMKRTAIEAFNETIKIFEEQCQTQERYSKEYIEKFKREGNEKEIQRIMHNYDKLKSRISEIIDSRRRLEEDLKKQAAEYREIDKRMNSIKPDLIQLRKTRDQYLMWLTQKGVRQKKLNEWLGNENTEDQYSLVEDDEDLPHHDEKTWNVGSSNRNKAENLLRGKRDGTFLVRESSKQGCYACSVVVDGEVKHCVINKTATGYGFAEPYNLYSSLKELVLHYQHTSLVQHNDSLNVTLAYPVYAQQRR", "test": "PI3K-alpha Fluorescence Polarization Assay", "format": "biochemical"}, "[2]": {"test": "CACO2 permeability a-b/b-a", "format": "in vitro ADME", "conditions": "human, Caco-2"}, "[3]": {"test": "Microsome Stability (15 min), human", "format": "in vitro ADME", "conditions": "microsomes, Phase I (NADPH), read-out: Microsome Stability (15 min) T ½ Phase I human"}, "[4]": {"test": "Microsome Stability (15 min), nude mouse", "format": "in vitro ADME", "conditions": "microsomes, Phase I (NADPH), read-out: Microsome Stability (15 min) T ½ Phase I nude mouse"}, "[5]": {"test": "Microsome Stability (15 min), rat", "format": "in vitro ADME", "conditions": "microsomes, Phase I (NADPH), read-out: Microsome Stability (15 min) T ½ Phase I rat"}, "[6]": {"test": "Solubility pH 7.4", "conditions": "pH 7.4, aqueous buffer"}, "[7]": {"test": "PAMPA permeability pH 7.4"}, "[8]": {"test": "Buffer Stability (37° C.)"}, "[9]": {"test": "Plasma Stability (37° C.), rat"}, "[10]": {"test": "Plasma Stability (37° C.), nude mouse"}, "[11]": {"test": "In vivo blood/plasma and tumor levels of prodrug and metabolites after 50 mg, kg po", "conditions": "for plasma prodrug concentration / tumor prodrug concentration: 50 mg"}, "[12]": {"target": "mTOR (Homo sapiens, UniProt P42345)", "test": "mTOR Enzyme Assay (DELFIA, purified enzyme)", "format": "biochemical", "parameters": "FLAG", "conditions": "read-out: mTOR Mean IC50"}}, "data": [{"smiles": "COc1ccc2c(c1)c(/C=C1\\Oc3cc(OC(=O)N(C)C)cc(OC(=O)N(C)C)c3C1=O)c(C)n2CCN1CCN(C)CC1", "note": "[Example 12, (2Z)-2-({5-methoxy-2-methyl-1-[2-(4-methylpiperazin-1-yl)ethyl]-1H-indol-3-yl}methylene)-3-oxo-2,3-dihydro-1-benzofuran-4,6-diyl bis(dimethylcarbamate)]", "values": [{"measurement": "IC50", "setting": "[1]", "result": "> 10", "unit": "µM"}, {"measurement": "Papp A→B", "setting": "[2]; a − b (first value of cell), read-out: CACO2 Pe a − b", "result": 1.98, "unit": "×10⁻⁶ cm/s"}, {"measurement": "Papp B→A", "setting": "[2]; b − a (second value of cell), read-out: CACO2 Pe b − a", "result": 3.36, "unit": "×10⁻⁶ cm/s"}, {"measurement": "half-life", "setting": "[3]", "result": 9, "unit": "min"}, {"measurement": "half-life", "setting": "[4]", "result": 23, "unit": "min"}, {"measurement": "half-life", "setting": "[5]", "result": 23, "unit": "min"}, {"measurement": "solubility", "setting": "[6]", "result": 40, "unit": "µg/mL"}, {"measurement": "PAMPA Pe", "setting": "[7]", "result": "0.78 10e−6 cm/s"}, {"measurement": "Buffer Stability (37° C.) % Remaining (at 16-23 hours) SGF", "setting": "[8]", "result": 100, "unit": "%"}, {"measurement": "Buffer Stability (37° C.) % Remaining (at 16-23 hours) SIF", "setting": "[8]", "result": 100, "unit": "%"}, {"measurement": "Buffer Stability (37° C.) % Remaining (at 16-23 hours) pH 1", "setting": "[8]", "result": 100, "unit": "%"}, {"measurement": "Buffer Stability (37° C.) % Remaining (at 16-23 hours) pH 4.5", "setting": "[8]", "result": 100, "unit": "%"}, {"measurement": "Buffer Stability (37° C.) % Remaining (at 16-23 hours) pH 6.6", "setting": "[8]", "result": 100, "unit": "%"}, {"measurement": "Buffer Stability (37° C.) % Remaining (at 16-23 hours) pH 7.4", "setting": "[8]", "result": 100, "unit": "%"}, {"measurement": "Buffer Stability (37° C.) % Remaining (at 16-23 hours) pH 9", "setting": "[8]", "result": 90, "unit": "%"}, {"measurement": "Plasma Stability (37° C.) % Remaining (3-3.5 hours) rat", "setting": "[9]", "result": 71, "unit": "%"}, {"measurement": "Plasma Stability (37° C.) % Remaining (3-3.5 hours) nude mouse", "setting": "[10]", "result": 32, "unit": "%"}, {"measurement": "plasma prodrug concentration", "setting": "[11]; 0.5 h", "result": "2444, ng, ml"}, {"measurement": "tumor prodrug concentration", "setting": "[11]; 0.5 h", "result": "344, ng, ml"}, {"measurement": "plasma prodrug concentration", "setting": "[11]; 2 h", "result": "3871, ng, ml"}, {"measurement": "tumor prodrug concentration", "setting": "[11]; 2 h", "result": "1278, ng, ml"}, {"measurement": "tumor prodrug concentration", "setting": "[11]; 6 h", "result": "629 ng, ml"}, {"measurement": "plasma prodrug concentration", "setting": "[11]; 6 h (third value)", "result": "2027, ng, ml"}, {"measurement": "plasma prodrug concentration", "setting": "[11]; 10 h", "result": "443 ng, ml"}, {"measurement": "tumor prodrug concentration", "setting": "[11]; 10 h", "result": "69 ng, ml"}, {"measurement": "plasma prodrug concentration", "setting": "[11]; 24 h", "result": "1 ng, ml"}, {"measurement": "tumor prodrug concentration", "setting": "[11]; 24 h", "result": "bql"}, {"measurement": "tumor precursor phenolic cmpd concentration (metabolite)", "setting": "[11]; prodrug 50 mg, 6 h (third value)", "result": "bql"}, {"measurement": "blood 4-OH, 6-OR mono prodrug concentration (metabolite)", "setting": "[11]; prodrug 50 mg, 24 h", "result": "bql"}, {"measurement": "blood 6-OH, 4-OR mono prodrug concentration (metabolite)", "setting": "[11]; prodrug 50 mg, 24 h", "result": "bql"}, {"measurement": "tumor 6-OH, 4-OR mono prodrug concentration (metabolite)", "setting": "[11]; prodrug 50 mg, 24 h", "result": "bql"}]}, {"smiles": "COc1ccc2c(c1)c(/C=C1\\Oc3cc(OC(=O)N(C)c4ccccc4)ccc3C1=O)c(C)n2CCN1CCN(C)CC1", "note": "[Example 46, (2Z)-2-({5-methoxy-2-methyl-1-[2-(4-methylpiperazin-1-yl)ethyl]-1H-indol-3-yl}methylene)-3-oxo-2,3-dihydro-1-benzofuran-6-yl methyl(phenyl)carbamate]", "values": [{"measurement": "half-life", "setting": "[5]", "result": 10, "unit": "min"}, {"measurement": "IC50", "setting": "[12]", "result": "> 4", "unit": "µM"}, {"measurement": "PAMPA Pe", "setting": "[7]", "result": "Undetected"}, {"measurement": "Buffer Stability (37° C.) % Remaining (at 16-23 hours) SGF", "setting": "[8]", "result": 98, "unit": "%"}, {"measurement": "Buffer Stability (37° C.) % Remaining (at 16-23 hours) SIF", "setting": "[8]", "result": 100, "unit": "%"}, {"measurement": "Buffer Stability (37° C.) % Remaining (at 16-23 hours) pH 1", "setting": "[8]", "result": 101, "unit": "%"}, {"measurement": "Buffer Stability (37° C.) % Remaining (at 16-23 hours) pH 4.5", "setting": "[8]", "result": 99, "unit": "%"}, {"measurement": "Buffer Stability (37° C.) % Remaining (at 16-23 hours) pH 6.6", "setting": "[8]", "result": 98, "unit": "%"}, {"measurement": "Buffer Stability (37° C.) % Remaining (at 16-23 hours) pH 7.4", "setting": "[8]", "result": 97, "unit": "%"}, {"measurement": "Buffer Stability (37° C.) % Remaining (at 16-23 hours) pH 9", "setting": "[8]", "result": 96, "unit": "%"}, {"measurement": "Plasma Stability (37° C.) % Remaining (3-3.5 hours) rat", "setting": "[9]", "result": 22, "unit": "%"}, {"measurement": "Plasma Stability (37° C.) % Remaining (3-3.5 hours) nude mouse", "setting": "[10]", "result": 19, "unit": "%"}]}, {"smiles": "COc1ccc2c(c1)c(/C=C1\\Oc3cc(OC(=O)N(C(C)C)C(C)C)ccc3C1=O)c(C)n2CCN1CCN(C)CC1", "note": "[Example 47, (2Z)-2-({5-methoxy-2-methyl-1-[2-(4-methylpiperazin-1-yl)ethyl]-1H-indol-3-yl}methylene)-3-oxo-2,3-dihydro-1-benzofuran-6-yl diisopropylcarbamate]", "values": [{"measurement": "IC50", "setting": "[1]", "result": "> 10", "unit": "µM"}, {"measurement": "half-life", "setting": "[5]", "result": 16, "unit": "min"}, {"measurement": "IC50", "setting": "[12]", "result": "> 4", "unit": "µM"}, {"measurement": "PAMPA Pe", "setting": "[7]", "result": "Undetected"}, {"measurement": "Buffer Stability (37° C.) % Remaining (at 16-23 hours) SGF", "setting": "[8]", "result": 98, "unit": "%"}, {"measurement": "Buffer Stability (37° C.) % Remaining (at 16-23 hours) SIF", "setting": "[8]", "result": 94, "unit": "%"}, {"measurement": "Buffer Stability (37° C.) % Remaining (at 16-23 hours) pH 1", "setting": "[8]", "result": 97, "unit": "%"}, {"measurement": "Buffer Stability (37° C.) % Remaining (at 16-23 hours) pH 4.5", "setting": "[8]", "result": 100, "unit": "%"}, {"measurement": "Buffer Stability (37° C.) % Remaining (at 16-23 hours) pH 6.6", "setting": "[8]", "result": 95, "unit": "%"}, {"measurement": "Buffer Stability (37° C.) % Remaining (at 16-23 hours) pH 7.4", "setting": "[8]", "result": 100, "unit": "%"}, {"measurement": "Buffer Stability (37° C.) % Remaining (at 16-23 hours) pH 9", "setting": "[8]", "result": 96, "unit": "%"}, {"measurement": "Plasma Stability (37° C.) % Remaining (3-3.5 hours) rat", "setting": "[9]", "result": 92, "unit": "%"}, {"measurement": "Plasma Stability (37° C.) % Remaining (3-3.5 hours) nude mouse", "setting": "[10]", "result": 82, "unit": "%"}]}]}
